In patent publication US11077100B2, “Tetrahydroquinoline derivatives as P2X7 receptor antagonists” (RaQualia Pharma Inc., priority 2017, dated 2021):

Molecular target: human P2X7 (Homo sapiens (Human), UniProt Q99572)
Experiment: Human P2X7 functional assay (Ca2+ influx, Fluo-4, FDSS)
Type: cell-based
Conditions: antagonistic activity with respect to the human P2X7 receptor; BzATP final concentration 80 microM
Procedure: The ability of the 5,6,7,8-tetrahydroquinoline and 6,7-dihydro-5H-cyclopenta[b]pyridine derivatives of the formula (I) to inhibit the P2X7 channel was measured by Ca^2+ influx assay and electrophysiology assay described below.
Human P2X7 Functional Assay
The functional activity of compounds was determined by measuring changes in intracellular calcium concentration using a Ca^2+-sensitive fluorescent dye, Fluo-4 (Molecular Probes). The changes in fluorescent signal were monitored by the cell imaging technology by Hamamatsu Photonics's Functional Drug Screening System (FDSS). Increases in intracellular Ca^2+ concentration were readily detected upon activation with BzATP.
HEK293 cells stably expressing human P2X7 (GenBank accession number BC011913) carrying a C-terminal FLAG tag were grown in T225 flasks, in a 5% CO2 humidified incubator to about 80% confluence. Media composition consisted of Dulbecco's Modified Eagle Medium (high glucose), 10% fetal bovine serum ([…]), 100 units/[…] Penicillin, 100 microg/mL Streptomycin and 250 microg/mL Geneticine.
1. Plate-out HEK293-human P2X7 cells (40 microL medium containing 10,000 cells per well) into poly-D-lysine coated 384-well plates (Corning) at 24 h prior to assay.
2. Incubate at 37° C. in 5% CO2.
3. Incubate the plate at 37° C. in 5% CO2 for 1 h.
5. Test compounds were prepared at 100× the test concentration in DMSO by serial dilution with Biomek-FX liquid handling instrument. 33× diluted compound solutions in assay buffer were prepared in intermediate compound plate with Biomek-NX liquid handling instrument. A further 3× dilution occurred in below steps 6 and 7.
6. Add 20 microL of 33× diluted compound solutions into each well and leave the plate for 10 min under the dark at room temperature.
7. Measure activity by FDSS as follows: • Set the assay plate on the stacker of FDSS. • Start the detection of fluorescence intensity at 540 nm by 480 nm exicitation. • After 30 seconds, add 20 microL of assay buffer containing 240 microM BzATP (final concentration 80 microM).
IC50 values for compounds of the present invention were determined from 7-point dose-response studies. Curves were generated using the average of duplicate wells for each data point. Finally, the IC50 values are calculated with the best-fit dose curve determined by XLfit (ID Business Solutions Ltd.).

human P2X7, sequence (Q99572 whole entry): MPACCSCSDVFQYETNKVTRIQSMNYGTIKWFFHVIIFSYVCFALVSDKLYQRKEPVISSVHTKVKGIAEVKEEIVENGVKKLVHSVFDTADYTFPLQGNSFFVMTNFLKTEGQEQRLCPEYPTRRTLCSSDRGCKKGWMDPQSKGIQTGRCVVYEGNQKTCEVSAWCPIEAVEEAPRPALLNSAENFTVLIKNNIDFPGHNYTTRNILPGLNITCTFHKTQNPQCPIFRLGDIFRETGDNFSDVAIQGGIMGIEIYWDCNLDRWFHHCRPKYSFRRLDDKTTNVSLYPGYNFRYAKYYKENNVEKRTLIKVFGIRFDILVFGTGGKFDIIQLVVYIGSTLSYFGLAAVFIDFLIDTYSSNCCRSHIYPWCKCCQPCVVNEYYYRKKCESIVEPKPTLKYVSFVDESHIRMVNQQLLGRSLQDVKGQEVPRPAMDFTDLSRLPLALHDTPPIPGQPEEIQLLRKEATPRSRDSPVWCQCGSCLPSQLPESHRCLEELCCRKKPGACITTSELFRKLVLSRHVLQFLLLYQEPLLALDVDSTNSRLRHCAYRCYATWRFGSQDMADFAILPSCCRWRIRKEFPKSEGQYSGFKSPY

Structure (SMILES) | IC50 [nM]
O=C(NCc1ccc(Cl)cc1Cl)[C@@]1(F)CC[C@H](O)c2ncccc21 [Example 105, (5R,8S)-N-(2,4-dichlorobenzyl)-5-fluoro-8-hydroxy-5,6,7,8-tetrahydroquinoline-5-carboxamide] | 301 to 1000
O=C(NCc1ccc(F)cc1F)[C@]1(F)CC[C@@H](O)c2ncccc21 [Example 109, (5S,8R)-N-(2,4-difluoro-benzyl)-5-fluoro-8-hydroxy-5,6,7,8-tetrahydroquinoline-5-carboxamide] | 301 to 1000
O=C(NCc1c(F)cc(Cl)cc1Cl)[C@@]1(F)CC[C@H](O)c2ncccc21 [Example 116, (5R,8S)-N-(2,4-dichloro-6-fluorobenzyl)-5-fluoro-8-hydroxy-5,6,7,8-tetrahydroquinoline-5-carboxamide] | 301 to 1000
O=C(NCc1cccc(Cl)c1Cl)[C@@]1(F)CC[C@H](O)c2ncccc21 [Example 120, (5R,8S)-N-(2,3-dichlorobenzyl)-5-fluoro-8-hydroxy-5,6,7,8-tetrahydroquinoline-5-carboxamide] | 1000 to 3000
Cc1ccc(CNC(=O)[C@]2(F)CC[C@@H](O)c3ncccc32)c(Cl)c1 [Example 125, (5S,8R)-N-(2-chloro-4-methylbenzyl)-5-fluoro-8-hydroxy-5,6,7,8-hydroquinoline-5-carboxamide] | 101 to 300
O=C(NCc1c(Cl)cccc1Cl)[C@@]1(F)CC[C@@H](O)c2ncccc21 [Example 138, (5R,8R)-N-(2,6-dichlorobenzyl)-5-fluoro-8-hydroxy-5,6,7,8-tetrahydroquinoline-5-carboxamide] | 101 to 300
O=C(NCc1ccc(F)cc1F)[C@@]1(F)CC[C@@H](O)c2ncccc21 [Example 140, (5R,8R)-N-(2,4-difluorobenzyl)-5-fluoro-8-hydroxy-5,6,7,8-tetrahydroquinoline-5-carboxamide] | 301 to 1000
O=C(NCc1ccc(F)cc1C(F)(F)F)[C@@]1(F)CC[C@@H](O)c2ncccc21 [Example 143, (5R,8R)-5-fluoro-N-(4-fluoro-2-(trifluoromethyl)benzyl)-8-hydroxy-5,6,7,8-tetrahydroquinoline-5-carboxamide] | 301 to 1000
O=C(NCc1ccc(Cl)cc1F)[C@@]1(F)CC[C@@H](O)c2ncccc21 [Example 145, (5R,8R)-N-(4-chloro-2-fluorobenzyl)-5-fluoro-8-hydroxy-5,6,7,8-tetrahydroquinoline-5-carboxamide] | 101 to 300
O=C(NCc1ccc(Cl)cc1C(F)(F)F)[C@@]1(F)CC[C@@H](O)c2ncccc21 [Example 156, (5R,8R)-N-(4-chloro-2-(trifluoromethyl)benzyl)-5-fluoro-8-hydroxy-5,6,7,8-tetrahydroquinoline-5-carboxamide] | 101 to 300
Cc1cccc(Cl)c1CNC(=O)[C@@]1(F)CC[C@@H](O)c2ncccc21 [Example 160, (5R,8R)-N-(2-chloro-6-methylbenzyl)-5-fluoro-8-hydroxy-5,6,7,8-tetrahydroquinoline-5-carboxamide] | 101 to 300
O=C(NCc1cc(F)c(F)cc1Cl)[C@@]1(F)CC[C@@H](O)c2ncccc21 [Example 162, (5R,8R)-N-(2-chloro-4,5-difluorobenzyl)-5-fluoro-8-hydroxy-5,6,7,8-tetrahydroquinoline-5-carboxamide] | 101 to 300
O=C(NCc1c(Cl)ccc(Cl)c1Cl)[C@@]1(F)CC[C@@H](O)c2ncccc21 [Example 164, (5R,8R)-5-fluoro-8-hydroxy-N-(2,3,6-trichlorobenzyl)-5,6,7,8-tetrahydroquinoline-5-carboxamide] | 101 to 300
Cc1ccc(CNC(=O)[C@@]2(F)CC[C@@H](O)c3ncccc32)c(Cl)c1 [Example 166, (5R,8R)-N-(2-chloro-4-methylbenzyl)-5-fluoro-8-hydroxy-5,6,7,8-tetrahydroquinoline-5-carboxamide] | 101 to 300

More lines, now with the values ahead:

IC50 [nM] | Structure (SMILES)
101 to 300 | O=C(NCc1c(Cl)cc(C(F)(F)F)cc1Cl)[C@@]1(F)CC[C@H](O)c2ncccc21 [Example 112, (5R,8S)-N-(2,6-dichloro-4-(trifluoromethyl)benzyl)-5-fluoro-8-hydroxy-5,6,7,8-tetrahydroquinoline-5-carboxamide]
< 50 | O=C(NCc1c(Cl)cc(C(F)(F)F)cc1Cl)[C@]1(F)CC[C@@H](O)c2ncccc21 [Example 113, (5S,8R)-N-(2,6-dichloro-4-(trifluoromethyl)benzyl)-5-fluoro-8-hydroxy-5,6,7,8-tetrahydroquinoline-5-carboxamide]
101 to 300 | O=C(NCc1c(Cl)cc(Cl)cc1C(F)F)[C@@]1(F)CC[C@H](O)c2ncccc21 [Example 114]
< 50 | C[C@@H](NC(=O)[C@]1(F)CC[C@@H](O)c2ncccc21)c1ccc(Cl)cc1Cl [Example 119, (5S-8R)-N-((R)-1-(2,4-dichlorophenyl)ethyl)-5-fluoro-8-hydroxy-5,6,7,8-tetrahydroquinoline-5-carboxamide]
101 to 300 | O=C(NCc1cc(F)c(F)cc1Cl)[C@]1(F)CC[C@@H](O)c2ncccc21 [Example 123, (5S,8R)-N-(2-chloro-4,5-difluorobenzyl)-5-fluoro-8-hydroxy-5,6,7,8,- tetrahydroqunioline-5-carboxamide]
101 to 300 | O=C(NCc1c(Cl)ccc(Cl)c1Cl)[C@]1(F)CC[C@@H](O)c2ncccc21 [Example 124, (5S,8R)-5-fluoro-8-hydroxy-N-(2,3,6-trichlorobenzyl)-5,6,7,8,- tetrahydroquinoline-5-carboxamide]
< 50 | O=C(NCc1c(Cl)cc(C(F)(F)F)cc1Cl)[C@@]1(F)CC[C@@H](O)c2ncccc21 [Example 147, (5R,8R)-N-(2,6-dichloro-4-(trifluoromethyl)benzyl)-5-fluoro-8-hydroxy-5,6,7,8-tetrahydroquinoline-5-carboxamide]
< 50 | O=C(NCc1c(F)cc(Cl)cc1Cl)[C@@]1(F)CC[C@@H](O)c2ncccc21 [Example 151, (5R,8R)-N-(2,4-dichloro-6-fluorobenzyl)-5-fluoro-8-hydroxy-5,6,7,8-tetrahydroquinoline-5-carboxamide]
50 to 100 | C[C@@H](NC(=O)[C@@]1(F)CC[C@@H](O)c2ncccc21)c1ccc(Cl)cc1Cl [Example 155, (5R,8R)-N-((R)-1-(2,4-dichlorophenyl)ethyl)-5-fluoro-8-hydroxy-5,6,7,8-tetrahydroquinoline-5-carboxamide]
50 to 100 | O=C(NCc1cc(Cl)ccc1Cl)[C@]1(F)CC[C@H](O)c2ncccc21 [Example 173, (5S,8S)-N-(2,5-dichlorobenzyl)-5-fluoro-8-hydroxy-5,6,7,8-tetrahydroquinoline-5-carboxamide]
< 50 | O=C(NCc1ccc(F)c(Cl)c1)[C@]1(F)CC[C@H](O)c2ncccc21 [Example 188, (5S,8S)-N-(3-chloro-4-fluorobenzyl)-5-fluoro-8-hydroxy-5,6,7,8-tetrahydroquinoline-5-carboxamide]
< 50 | O=C(NCc1ncc(C(F)(F)F)cc1Cl)[C@]1(F)CC[C@H](O)c2ncccc21 [Example 194, (5S,8S)-N-((3-chloro-5-(trifluoromethyl)pyridin-2-yl)methyl)-5-fluoro-8-hydroxy-5,6,7,8-tetrahydroquinoline-5-carboxamide]
< 50 | O=C(NCc1ccc(Cl)c(Cl)c1)[C@]1(F)CC[C@H](O)c2ncccc21 [Example 197, (5S,8S)-N-(3,4-dichlorobenzyl)-5-fluoro-8-hydroxy-5,6,7,8-tetrahydroquinoline-5-carboxamide]
